# Reference: publication PMC11347546, “A radioligand for in vitro autoradiography of CSF1R in post-mortem CNS tissues” (EJNMMI Research, 2024)
# Several values for one entry are separate records, joined by “and”; a condition that tells them apart may be missing. Equal values may be shown once. Read-outs that look alike come from different tables or passages of the source.
# Assays:
# [1] = biological target: T1, CSF1R (Mus musculus, UniProt P09581); test: Ex vivo brain uptake of [^11C]1 in LPS-induced murine model of neuroinflammation, baseline and CPPC blocking; parameters: species or system CD1 mice
# T1 construct: from tissue; host or cells: whole brain of male CD1 mice, radiotracer injected in vivo, brains counted ex vivo
# T1 sequence (P09581 20-977): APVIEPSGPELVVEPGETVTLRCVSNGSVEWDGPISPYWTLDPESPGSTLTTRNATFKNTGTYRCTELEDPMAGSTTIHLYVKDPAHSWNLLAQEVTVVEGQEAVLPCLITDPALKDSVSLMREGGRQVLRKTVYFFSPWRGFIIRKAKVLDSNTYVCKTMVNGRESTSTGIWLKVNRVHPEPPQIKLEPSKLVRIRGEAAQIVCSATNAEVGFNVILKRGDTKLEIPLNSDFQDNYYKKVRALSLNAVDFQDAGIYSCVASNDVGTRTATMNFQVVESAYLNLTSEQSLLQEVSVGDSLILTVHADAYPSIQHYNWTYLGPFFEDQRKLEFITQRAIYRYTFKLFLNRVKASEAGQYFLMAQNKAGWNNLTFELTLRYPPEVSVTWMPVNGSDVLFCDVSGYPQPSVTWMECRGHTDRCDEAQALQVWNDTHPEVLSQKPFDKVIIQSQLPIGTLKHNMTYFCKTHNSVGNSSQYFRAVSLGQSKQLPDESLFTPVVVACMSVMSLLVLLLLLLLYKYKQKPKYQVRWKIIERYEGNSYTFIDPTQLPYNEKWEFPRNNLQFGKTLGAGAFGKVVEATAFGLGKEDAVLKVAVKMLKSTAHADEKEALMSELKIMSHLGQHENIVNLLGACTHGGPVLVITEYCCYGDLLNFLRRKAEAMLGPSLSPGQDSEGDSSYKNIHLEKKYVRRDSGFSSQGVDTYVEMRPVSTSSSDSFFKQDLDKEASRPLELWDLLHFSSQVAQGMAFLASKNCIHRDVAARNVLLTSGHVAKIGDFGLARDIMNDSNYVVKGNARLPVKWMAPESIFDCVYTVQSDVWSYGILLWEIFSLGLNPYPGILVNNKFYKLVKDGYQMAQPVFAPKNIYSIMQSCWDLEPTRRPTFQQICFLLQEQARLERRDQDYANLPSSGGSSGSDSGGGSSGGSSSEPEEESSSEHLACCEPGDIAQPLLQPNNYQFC
# Procedure: Studies were performed in a murine LPS-induced neuroinflammation model under the conditions described previously. The percentage of the standardized uptake value (%SUV) uptake in the whole brain at […] after injection was corrected for blood radioactivity as SUV^whole brain/SUV^blood = SUV ratio (SUVR) (Fig. 1).
# Fig. 1 Brain uptake of CSF1R radiotracer [^11C]1 in control mice (Base); LPS-treated mice (LPS base); and LPS-treated mice, blocking with CSF1R inhibitor (LPS block). The time point was 45 min after the radiotracer injection. The LPS treatment was IP, 10 mg/kg. Data are mean SUVR ± SD (n = 6). […] Statistical analysis: comparison of LPS-baseline versus control or LPS-block, ANOVA
# Brain regional distribution of [^11C]1 in neuroinflammation mouse model: The study was performed in the murine LPS-induced neuroinflammation model described previously. […] The LPS (O111:B4, Calbiochem, San Diego, CA) solution in sterile saline (10 mg/kg, 0.2 mL) was administered intraperitoneally and the radiotracer study was performed on the 3rd day thereafter.
# The animals were injected IV with 3.7 MBq (0.1 mCi) [^11C]1 [specific radioactivity = 444 GBq/µmol (12 Ci/µmol)] and sacrificed by cervical dislocation at 45 min after the radiotracer injection. The whole brains were removed, dissected on ice and blood samples (0.2-0.5 cc) were taken from heartand their radioactivity content was determined in a γ-counter LKB/Wallac CompuGamma. The outcome variables were calculated as SUVR = SUVwhole brain/SUVblood.
# [2] = system: CSF1R; parameters: method as in PMID 18242992; conditions: read-out: CSF1R functional potency IC50; cited from earlier work
# [3] = Ex vivo regional brain distribution of [^11C]1 in control CD1 mice; parameters: species or system CD1 male mice; conditions: for Regional brain uptake: mean ± SD, n = 3
# Procedure: The regional brain uptake of [^11C]1 in control CD1 male mice at three time points after injection of radiotracer is shown in Table 2. […] The uptake in other regions studied here was lower.
# Brain regional distribution of [^11C]1 in control mice, baseline: All animal studies were conducted within the guidelines of approved IACUC protocols for mice and non-human primates. Male CD1 mice of four to eight weeks of age, weighing 24-29 g from Charles River Laboratories (Wilmington, MA) were used. […] The brains were removed and dissected on ice. The brain regions (cerebellum, hippocampus, frontal cortex, brain stem and rest of brain) were weighed and their radioactivity content was determined in a γ-counter LKB/Wallac 1283 CompuGamma CS (Bridgeport, CT). The percentage of injected dose per gram of tissue %ID/g tiss was calculated (Table 2).
# [4] = Dynamic PET brain uptake in control baboon; type: in vivo, Papio anubis baboon; conditions: peak at 30 min after injection
# Procedure: Dynamic PET scan was performed on a male baboon (Papio anubis, 27 kg) using the High Resolution Research Tomograph (CPS Innovations, Knoxville, TN) with an IV injection of 751 MBq (20.3 mCi) [^11C]1 [specific radioactivity: 518 TBq/mmol (14,000 Ci/mmol)]. PET imaging and data analysis and radiometabolite analysis of baboon arterial blood are described in detail in the SI Appendix.
# PET images were acquired using a CPS/CTI High Resolution Research Tomograph (HRRT), which has an axial resolution (FWHM) of 2.4 mm, and in plane resolution of 2.4–2.8 mm. The animal was anesthetized and handled as described previously. The 90 min PET data were binned into […]: four 15-s, four 30-s, three 1-min, two 2-min, five 4-min, and twelve 5-min frames. Images were reconstructed using the iterative ordered subset expectation maximization (OS-EM) algorithm (with six iterations and 16 subsets) with correction for radioactive decay, deadtime, attenuation, scatter and randoms. The reconstructed image space consisted of cubic voxels, each 1.22 mm^3 in size, and spanning dimensions of 31 cm × 31 cm (transaxially) and 25 cm (axially).
# The image analysis and kinetic modeling were performed using software PMOD (v3.7, PMOD Technologies Ltd, Zurich, Switzerland). Dynamic PET images were first co-registered with the MRI images. […]
# [5] = Radiometabolite analysis of baboon blood; type: in vivo, Papio anubis baboon; conditions: 90 min post injection
# Procedure: (75%) at 90 min post injection.
# Samples were centrifuged at 1200×g and the radioactivity in plasma were measured with a cross-calibrated gamma counter. Selected plasma samples (5, 10, 20, 30, 60, and 90 min) were analyzed with high performance liquid chromatography (HPLC) for radioactive metabolites in plasma as described above.
# [6] = Radiochemical purity of formulated [^11C]1 after end-of-synthesis by analytical HPLC; type: physicochemical; conditions: within 90 min after the end-of-synthesis
# Procedure: To a 1 mL V-vial, precursor, 4-cyano-N-(2-(4-methylpiperidin-1-yl)-4-(piperazin-1-yl)phenyl)-1H-pyrrole-2-carboxamide, 8 (1 mg) was added in solution of 0.2 mL of anhydrous DMF. [^11C]Methyl iodide, carried by a stream of helium, was trapped in the precursor solution. The reaction was heated at 80 °C for 3.5 min, then quenched with 0.2 mL of water. The crude reaction product was purified by reverse-phase high performance liquid chromatography (HPLC) at a flow rate of 12 mL/min. The radiolabelled product [^11C]1 (tR = 7–8 min) was fully separated from the precursor (tR = 2.7 min) and collected in a solution of 0.3 g sodium ascorbate in 50 mL water. The aqueous solution was transferred through an activated Waters Oasis Sep-Pak Light cartridge (Milford, MA). After washing the cartridge with 10 mL saline, the product was eluted with 1 mL of ethanol through a […] sterile filter into a sterile, pyrogen-free vial containing 4 mL saline, and 10 mL of 0.9% saline was added through the same filter. The final product, [^11C]1, was analyzed by analytical HPLC to determine the radiochemical purity (> 99%) and specific radioactivity (15–23 Ci/µmol).
# HPLC conditions for [^11C]1. Preparative HPLC: Column, XBridge C18, 10 × 250 mm (Waters, Milford, MA). Mobile phase: 39%:61% acetonitrile: triethylamine-phosphate buffer, pH 7.2. Flow rate: 12 mL/min, retention time 8 min. […]
# [7] = parameters: method as in PMID 30635412; conditions: baboon brain, baseline PET; cited from earlier work
# [8] = parameters: method as in PMID 30635412; conditions: baboon blood, 90 min post injection; cited from earlier work
structure (smiles),measurement,setting,value
"CN1CCN(c2ccc(NC(=O)c3ccc(C#N)o3)c(N3CCCCC3)c2)CC1 [CPPC, 5-cyano-N-(4-(4-methylpiperazin-1-yl)-2-(piperidin-1-yl)phenyl)furan-2-carboxamide, reference compound]",Effect of blocking on [^11C]1 brain uptake (SUVR),"[1]; CPPC 1 mg/kg IP 5 min before [^11C]1, LPS-treated mice",significantly decreased the uptake in the LPS-treated mice to the control level
"CC1CCN(c2cc(N3CCN([11CH3])CC3)ccc2NC(=O)c2cc(C#N)c[nH]2)CC1 [[^11C]1, 4-cyano-N-(4-(4-[^11CH3]methylpiperazin-1-yl)-2-(4-methylpiperidin-1-yl)phenyl)-1H-pyrrole-2-carboxamide]",Regional brain uptake,"[3]; brain stem, 2 min",1.78 ± 0.48 %ID/g tissue
same,Regional brain uptake,"[3]; brain stem, 30 min",1.32 ± 0.10 %ID/g tissue
same,Regional brain uptake,"[3]; brain stem, 60 min",0.92 ± 0.11 %ID/g tissue
same,Regional brain uptake,"[3]; cerebellum, 2 min",2.08 ± 0.39 %ID/g tissue
same,Regional brain uptake,"[3]; cerebellum, 30 min",1.39 ± 0.04 %ID/g tissue
same,Regional brain uptake,"[3]; cerebellum, 60 min",0.95 ± 0.09 %ID/g tissue
same,Regional brain uptake,"[3]; frontal cortex, 2 min after injection",2.15 %ID/g tissue and 2.15 ± 0.44 %ID/g tissue
same,Regional brain uptake,"[3]; frontal cortex, 30 min",1.49 ± 0.17 %ID/g tissue
same,Regional brain uptake,"[3]; frontal cortex, 60 min",1.13 ± 0.08 %ID/g tissue
same,Regional brain uptake,"[3]; hippocampus, 2 min",1.63 ± 0.31 %ID/g tissue
same,Regional brain uptake,"[3]; hippocampus, 30 min",1.32 ± 0.10 %ID/g tissue
same,Regional brain uptake,"[3]; hippocampus, 60 min",1.01 ± 0.17 %ID/g tissue
same,Regional brain uptake,"[3]; rest of brain, 2 min",1.81 ± 0.34 %ID/g tissue
same,Regional brain uptake,"[3]; rest of brain, 30 min",1.31 ± 0.10 %ID/g tissue
same,Regional brain uptake,"[3]; rest of brain, 60 min",0.90 ± 0.06 %ID/g tissue
same,Total mouse brain uptake,[3]; total mouse brain,~ 2 % ID/g tissue
same,Specific CSF1R binding (share of brain uptake),"[1]; LPS-treated mice, brain",~ 50% and 50%
same,SUVR (SUV whole brain/SUV blood) in LPS-treated mice versus controls,"[1]; whole brain, 40 min after injection, n = 6",significantly greater in LPS-treated mice than in controls
same,Peak brain uptake,[4],0.36 SUV
same,Metabolism rate,[5],16%
same,Change of radiochemical purity of final product,[6],did not change
[11CH3]N1CCN(c2ccc(NC(=O)c3ccc(C#N)o3)c(N3CCCCC3)c2)CC1 [[^11C]CPPC],Brain uptake,[7],3.5 SUV
same,Metabolism rate,[8],75%
